Laboratory results as given in ChEMBL document CHEMBL1201862, “PubChem BioAssay data set” (2004).
The source made the active and inactive calls.

Assays:
[1] = inhibitors of firefly luciferase expression or activity, dose response, H4 neuroglioma cells, luminescence (AID 1990); assay type: functional, cell-based
[2] = Luminescence Cell-Based Dose Response HTS to Identify Inhibitors of 5'UTR Stem-Loop Driven Prion Protein mRNA Translation in H4 Neuroglioblastoma Cells. [Related pubchem assays: 1827 (Project Summary), 1813 (Primary HTS)]; assay type: functional
[3] = inhibitors of SNCA 5'UTR-driven reporter translation, confirmation, H4 neuroglioma cells, luminescence (AID 1988); assay type: functional, cell-based
[4] = inhibitors of intracellular T. cruzi replication, confirmation, NIH3T3 host cells, beta-gal luminescence (AID 2044); assay type: functional, cell-based;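 also: intracellular parasites grown in NIH/3T3 mouse fibroblasts as host cells; luminescent beta-galactosidase reporter signal from transgenic T. cruzi replicating inside host cells; inhibitors lower the luminescence signal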
[5] = cytotoxicity toward NIH3T3 fibroblasts, dose response, counter-screen, cell-based, ATP luminescence, mouse fibroblasts (AID 2010); assay type: functional;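 also: cells exposed to compound for about 90 hours before reading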
[6] = target: T1, Corticotropin-releasing factor receptor 2/Corticotropin-releasing factor-binding protein (Homo sapiens, UniProt P24387+Q13324); experiment: activators of CRF receptor 2 with binding protein – uHTS hits, confirmation (AID 602473); assay type: functional; conditions: read-out: EC50_Mean
T1 sequence (Q13324 whole entry): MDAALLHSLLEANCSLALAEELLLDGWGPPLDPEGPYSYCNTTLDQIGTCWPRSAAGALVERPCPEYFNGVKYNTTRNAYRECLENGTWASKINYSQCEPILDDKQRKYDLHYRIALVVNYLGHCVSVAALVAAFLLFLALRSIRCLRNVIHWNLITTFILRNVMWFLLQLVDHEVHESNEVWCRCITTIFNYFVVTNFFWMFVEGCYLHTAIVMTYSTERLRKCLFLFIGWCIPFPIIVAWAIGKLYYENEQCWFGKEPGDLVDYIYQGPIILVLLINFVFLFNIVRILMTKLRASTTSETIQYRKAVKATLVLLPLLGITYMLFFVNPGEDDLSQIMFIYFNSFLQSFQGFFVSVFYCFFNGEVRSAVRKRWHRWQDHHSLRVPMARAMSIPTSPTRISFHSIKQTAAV
T1 sequence (P24387 whole entry): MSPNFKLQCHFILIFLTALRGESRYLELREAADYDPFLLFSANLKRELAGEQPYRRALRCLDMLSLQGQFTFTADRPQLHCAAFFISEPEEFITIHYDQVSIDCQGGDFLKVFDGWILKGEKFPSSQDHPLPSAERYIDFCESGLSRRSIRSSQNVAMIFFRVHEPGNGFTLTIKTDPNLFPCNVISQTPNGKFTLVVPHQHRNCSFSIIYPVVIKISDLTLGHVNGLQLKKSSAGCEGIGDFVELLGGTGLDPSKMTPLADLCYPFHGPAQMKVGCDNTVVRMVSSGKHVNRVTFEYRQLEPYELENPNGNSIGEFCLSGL

Cytochrome P450 2C19 = Cytochrome P450 2C19 (Homo sapiens, UniProt P33261); experiment: Cytochrome panel assay with activity outcomes. Panel member name: p450-cyp2c19 Compounds with AC50 equal or less than 10 uM are considered active; assay type: functional
Chain of Cytochrome P450 2C19 (P33261 whole entry): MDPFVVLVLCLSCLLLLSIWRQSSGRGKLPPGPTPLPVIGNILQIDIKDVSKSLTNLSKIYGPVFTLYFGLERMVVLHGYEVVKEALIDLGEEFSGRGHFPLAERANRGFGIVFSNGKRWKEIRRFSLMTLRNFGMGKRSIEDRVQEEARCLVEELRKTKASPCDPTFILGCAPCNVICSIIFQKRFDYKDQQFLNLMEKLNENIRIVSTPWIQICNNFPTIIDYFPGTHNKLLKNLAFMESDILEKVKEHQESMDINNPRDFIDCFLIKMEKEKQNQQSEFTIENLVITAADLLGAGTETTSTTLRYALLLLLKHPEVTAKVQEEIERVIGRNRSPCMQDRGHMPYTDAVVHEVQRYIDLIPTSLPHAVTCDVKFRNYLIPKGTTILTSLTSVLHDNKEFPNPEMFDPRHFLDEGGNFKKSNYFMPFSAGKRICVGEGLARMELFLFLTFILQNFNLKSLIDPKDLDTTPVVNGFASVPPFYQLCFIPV

With `CCc1ccc(-c2nc(CSCC(=O)N3CCN(c4ccccn4)CC3)c(C)o2)cc1` the EC50 [1] was 8.61 µM (active), the EC50 [2] was 15 µM (active) and the EC50 [3] was 12 µM (active).
With `CCC(NCCC1=CCCCC1)=C1C(=O)NC(=O)NC1=O` the EC50 [1] was > 120 µM (not active), the EC50 [2] was > 120 µM (not active) and the EC50 [3] was > 120 µM (not active).
In the case of `CCN(CC)CCN(C(=O)c1ccc(S(=O)(=O)N2CCCCC2)cc1)c1nc2cc3c(cc2s1)OCO3`, the EC50 [4] is reported as 0.213 µM (active) and the EC50 [5] is reported as > 60 µM (not active).
With `CCOc1ccc(NS(=O)(=O)c2ccc(C(=O)NCC3(N4CCCCC4)CCCCC3)cc2)cc1` the EC50 [6] was 6.45 µM (active).
With `Cc1ccc(C)c(NC(=O)c2ccccc2O)c1` the EC50 [6] was > 53 µM (inactive).
For `CN1c2ccccc2Oc2c(c(=O)n(C)c(=O)n2C)C1c1cccc([N+](=O)[O-])c1` (stereo not given), the AC50 (Cytochrome P450 2C19; read-out: AC50) was 14.1 µM (inconclusive).
In the case of `Cc1ccc2c(c1)N1C(=O)c3ccccc3C1C1=C(O)CC(C)(C)CC1=N2` (stereo not given), the EC50 [1] is reported as > 120 µM (not active), the EC50 [2] is reported as 18.1 µM (active) and the EC50 [3] is reported as > 120 µM (not active).
With `O=C(OCc1ccccc1)c1cn(-c2ccccc2)nc1-c1ccncc1` the EC50 [4] was 1.14 µM (active) and the EC50 [5] was 33.5 µM (active).
With `Cc1cccc(NC(=O)CSc2nnc(C)c(=O)n2N)c1C` the EC50 [1] was > 120 µM (not active), the EC50 [2] was > 120 µM (not active) and the EC50 [3] was > 120 µM (not active).
For `COc1cc(CNC(=O)c2nc(Cn3nc(C)c(Br)c3C)no2)cc(OC)c1`, the EC50 [1] was > 120 µM (not active), the EC50 [2] was > 120 µM (not active) and the EC50 [3] was 42.7 µM (active).
For `Cc1ccc2sc(N3CCN(C(=O)c4ccc([N+](=O)[O-])o4)CC3)nc2c1C`, the EC50 [4] was 0.119 µM (active) and the EC50 [5] was > 30 µM (not active).
In the case of `CCc1c(C#N)c(SCCC(=O)Nc2ccc(F)cc2)nc2c1C(=O)CC(C)(C)C2`, the EC50 [4] is reported as 0.996 µM (active) and the EC50 [5] is reported as > 60 µM (not active).
With `CC(C)c1ccc(C(O)P(=O)(OC2CCCCC2)OC2CCCCC2)cc1` (stereo not given) the EC50 [1] was > 120 µM (not active), the EC50 [2] was 19.2 µM (active) and the EC50 [3] was > 120 µM (not active).
With `O=C(CCc1ccc(S(=O)(=O)NCc2ccccc2)cc1)N1CCN(Cc2ccc3c(c2)OCO3)CC1` the EC50 [4] was 0.897 µM (active) and the EC50 [5] was > 30 µM (not active).
With `O=S(=O)(c1ccccc1)N1CCC2(CC1)OCCO2` the EC50 [1] was > 120 µM (not active), the EC50 [2] was 6.97 µM (active) and the EC50 [3] was > 120 µM (not active).
For `CCC/C=C(\CCC)C(NC(=O)C(C)(C)C)c1ccc(C(=O)OC)cc1` (stereo not given), the AC50 (Cytochrome P450 2C19; read-out: AC50) was 39.8 µM (inconclusive).
In the case of `Cc1ccc(-n2nnc(-c3nccs3)n2)cc1`, the EC50 [1] is reported as 4.02 µM (active), the EC50 [2] is reported as 0.985 µM (active) and the EC50 [3] is reported as 1.41 µM (active).
In the case of `Cc1nn(Cc2ccccc2Cl)c(C)c1C(=O)NC1CCCc2ccccc21` (stereo not given), the EC50 [1] is reported as 17.1 µM (active), the EC50 [2] is reported as 103 µM (active) and the EC50 [3] is reported as 58 µM (active).
With `Cc1onc(-c2ccccc2Cl)c1C(=O)N(Cc1ccc(N(C)C)cc1)C(C)C` the EC50 [1] was 22.5 µM (active), the EC50 [2] was > 120 µM (not active) and the EC50 [3] was > 120 µM (not active).
With `COc1ccc(N(CC(=O)NN=C2CCCC2)S(=O)(=O)c2ccccc2)cc1Cl` the EC50 [6] was 4.37 µM (active).
For `O=c1c(-c2ccc(O)cc2)coc2cc(O)cc(O)c12` [GENISTEIN], the AC50 (Cytochrome P450 2C19; read-out: AC50) was 10 µM (inconclusive).
With `COc1ccc(-n2c(S)nnc2CNC(=O)c2cc(OC)c(OC)c(OC)c2)cc1` the AC50 (Cytochrome P450 2C19) was “inconclusive”.
With `NC(S)=Nc1cccc2[nH]ccc12` the EC50 [5] was > 30 µM (not active).
With `Cn1c(=N)n(CC(=O)c2ccc(Cl)c(Cl)c2)c2ccccc21` the EC50 [1] was 6.07 µM (inconclusive), the EC50 [2] was 13.5 µM (active) and the EC50 [3] was 9.54 µM (active).
In the case of `CC(C)NC(=O)N1CCC2(CC1)CCN(S(C)(=O)=O)CC2`, the AC50 (Cytochrome P450 2C19; read-out: AC50) is reported as 39.8 µM (inconclusive).
In the case of `COc1cc(NC(=O)CCN2CCN(C/C=C/c3ccccc3)CC2)cc(OC)c1`, the EC50 [4] is reported as 0.918 µM (active) and the EC50 [5] is reported as > 60 µM (not active).
With `Nc1nc(NCCCN2CCOCC2)nc(Nc2ccccc2)c1[N+](=O)[O-]` the EC50 [1] was 40.7 µM (active), the EC50 [2] was 19 µM (active) and the EC50 [3] was > 120 µM (not active).
With `O=C(CCCCCn1c(=S)[nH]c2ccc(N3CCOCC3)cc2c1=O)NC1CCN(Cc2ccccc2)CC1` the EC50 [4] was 0.595 µM (active) and the EC50 [5] was > 60 µM (not active).
For `CCN(Cc1ccc(O)cc1)CC1CCCN(CCc2cccc(F)c2)C1` (stereo not given), the EC50 [4] was 0.69 µM (active) and the EC50 [5] was 40.3 µM (active).
For `Cc1c(C(=O)NCC2COc3ccccc3O2)oc2ccc(S(=O)(=O)N3CC(C)CC(C)C3)cc12` (stereo not given), the EC50 [4] was 1.79 µM (active) and the EC50 [5] was > 60 µM (not active).
For `CC1(C)Cc2c(ccc3ccccc23)C(c2cc3ccccc3oc2=O)=N1`, the EC50 [1] was 11.1 µM (active), the EC50 [2] was 21.5 µM (active) and the EC50 [3] was > 120 µM (not active).
In the case of `CC(C)NC(=O)c1ccccc1NC(=O)/C=C/c1cccc([N+](=O)[O-])c1`, the EC50 [1] is reported as 8.64 µM (active), the EC50 [2] is reported as 11.3 µM (active) and the EC50 [3] is reported as 9.29 µM (active).
With `C#CCn1/c(=N/C(=O)c2ccc(S(=O)(=O)N3CCCc4ccccc43)cc2)sc2cc(S(N)(=O)=O)ccc21` the EC50 [4] was 0.819 µM (active) and the EC50 [5] was > 60 µM (not active).
With `O=C(O)c1ccccc1N/N=C\c1ccnc2ccccc12` the EC50 [2] was 11.1 µM (active) and the EC50 [3] was 7.78 µM (active).
In the case of `Cc1ccc(Sc2nc(-c3ccccc3)ccc2C#N)cc1`, the AC50 (Cytochrome P450 2C19; read-out: AC50) is reported as 0.631 µM (inconclusive).
In the case of `O=C(Nc1ccc(N2CCCCC2)cc1)c1cc([N+](=O)[O-])cc([N+](=O)[O-])c1`, the EC50 [4] is reported as 0.411 µM (active) and the EC50 [5] is reported as > 60 µM (not active).
In the case of `COC(=O)c1sc(NC(=S)NC(=O)c2cccc(C)c2)nc1C`, the EC50 [6] is reported as 9.05 µM (active).
In the case of `NC(=NOC(=O)c1cc([N+](=O)[O-])ccc1Cl)c1cccnc1`, the EC50 [1] is reported as > 120 µM (not active), the EC50 [2] is reported as > 120 µM (not active) and the EC50 [3] is reported as > 120 µM (not active).
In the case of `CN1CCN(CC2(O)CCN(S(=O)(=O)c3ccc(Cl)cc3)CC2)CC1`, the EC50 [4] is reported as 1.11 µM (active) and the EC50 [5] is reported as > 60 µM (not active).
With `Cc1ccccc1N1C(=O)NC(=O)/C(=C\c2ccc3c(c2)CCCN3Cc2ccccc2)C1=O` the EC50 [6] was 14.2 µM (active).
With `CC(=O)NCCC(=O)Nc1cc(S(=O)(=O)N2CCCCC2)ccc1N1CCN(C)CC1` the EC50 [4] was 0.231 µM (active) and the EC50 [5] was > 30 µM (not active).
For `COc1cccc(-c2nc(CS(=O)(=O)CC(=O)NCCc3ccc(C)cc3)c(C)o2)c1`, the EC50 [1] was > 120 µM (not active), the EC50 [2] was > 120 µM (not active) and the EC50 [3] was > 120 µM (not active).
In the case of `Cc1cc(C)c(S(=O)(=O)N2CCN(c3ccc([N+](=O)[O-])c(-n4nc(C)cc4C)c3)CC2)c(C)c1`, the EC50 [4] is reported as 1.83 µM (active) and the EC50 [5] is reported as > 60 µM (not active).
